Data reported in US7507813B2, “Amorphous cefuroxime axetil and preparation process therefore” (Nanomaterials Technology Pte Ltd., priority 2004, dated 2009).

Assay: Particle size of the cefuroxime axetil particles (SEM images)
Type: physicochemical
Conditions: amorphous particles from antisolvent precipitation

average particle size	SMILES
about 500 nm	CO/N=C(\C(=O)N[C@@H]1C(=O)N2C(C(=O)OC(C)OC(C)=O)=C(COC(N)=O)CS[C@H]12)c1ccco1 (some centres unmarked) [Example 9, cefuroxime axetil]
about 600 nm	CO/N=C(\C(=O)N[C@@H]1C(=O)N2C(C(=O)OC(C)OC(C)=O)=C(COC(N)=O)CS[C@H]12)c1ccco1 (some centres unmarked) [Example 10, cefuroxime axetil]
about 1 μm	CO/N=C(\C(=O)N[C@@H]1C(=O)N2C(C(=O)OC(C)OC(C)=O)=C(COC(N)=O)CS[C@H]12)c1ccco1 (some centres unmarked) [Example 11, cefuroxime axetil]

Further lines, the compound ahead of its results:

SMILES	average particle size
CO/N=C(\C(=O)N[C@@H]1C(=O)N2C(C(=O)OC(C)OC(C)=O)=C(COC(N)=O)CS[C@H]12)c1ccco1 (some centres unmarked) [Example 1, cefuroxime axetil]	about 500 nm
CO/N=C(\C(=O)N[C@@H]1C(=O)N2C(C(=O)OC(C)OC(C)=O)=C(COC(N)=O)CS[C@H]12)c1ccco1 (some centres unmarked) [Example 2, cefuroxime axetil]	about 600 nm
CO/N=C(\C(=O)N[C@@H]1C(=O)N2C(C(=O)OC(C)OC(C)=O)=C(COC(N)=O)CS[C@H]12)c1ccco1 (some centres unmarked) [Example 3, cefuroxime axetil]	about 1 μm
CO/N=C(\C(=O)N[C@@H]1C(=O)N2C(C(=O)OC(C)OC(C)=O)=C(COC(N)=O)CS[C@H]12)c1ccco1 (some centres unmarked) [Example 4, cefuroxime axetil]	about 400 nm
CO/N=C(\C(=O)N[C@@H]1C(=O)N2C(C(=O)OC(C)OC(C)=O)=C(COC(N)=O)CS[C@H]12)c1ccco1 (some centres unmarked) [Example 5, cefuroxime axetil]	about 200 nm
CO/N=C(\C(=O)N[C@@H]1C(=O)N2C(C(=O)OC(C)OC(C)=O)=C(COC(N)=O)CS[C@H]12)c1ccco1 (some centres unmarked) [Example 6, cefuroxime axetil]	about 1 μm
CO/N=C(\C(=O)N[C@@H]1C(=O)N2C(C(=O)OC(C)OC(C)=O)=C(COC(N)=O)CS[C@H]12)c1ccco1 (some centres unmarked) [Example 7, cefuroxime axetil]	about 500 nm
CO/N=C(\C(=O)N[C@@H]1C(=O)N2C(C(=O)OC(C)OC(C)=O)=C(COC(N)=O)CS[C@H]12)c1ccco1 (some centres unmarked) [Example 8, cefuroxime axetil]	about 2 μm
